Experimental data reported in patent US20210077370A1, “Use of compositions comprising dihydroxyacetone for the protection of skin or hair against infrared irradiation” (Merck Patent GmbH, priority 2019, published 2021).

How the values were obtained:
[1] = test system: tropoelastin; assay: Tropoelastin immunostaining on human skin explants after IR-A irradiation; assay type: cell-based; conditions: papillary dermis
Description: (§1) The product tested is a solution of 2% DHA in water. This was done to avoid formulation effects of auxiliary ingredients.
(§2) Human skin explants were prepared on an abdominoplasty coming from a person (Fitzpatrick skin phototype II-Ill). The explants were kept in survival in BEM culture medium (BIO-EC's Explants Medium) at 37° C. in a humid, 5%-CO2 atmosphere.
(§3) On day 0 (D0), day 3 (D3) and day 4 (D4; 3 hours before IR irradiation), day 5 (D5) and day 6 (D6), the product was applied topically followed by 10 minutes of drying. […] The culture medium was half renewed (1 ml/well) on day 3 and day 5. Irradiation of the explants were done using an infrared lamp (Dr FISCHER 1000 W, 235V, 2500K, 760-3000 nm), for 5040 s (720 J/cm^2). Water filter and IR760 filter were also used to have the following IR range of 700 nm to 1150 nm. The unirradiated batches were kept in HBSS (Hank's Balanced Saline Solution) in the dark. At the end of the irradiation, all the explants were put back in 2 ml of fresh BEM culture medium.
(§4) The explants temperature was measured before and after IR-A irradiation. To avoid temperature-driven side-effects, the explants temperature was maintained at 37° C. (max. 39° C.) by specially adapted refreshing system.
The nuclei were counterstained by propidium iodide.
The immunostaining was assessed by microscopical observation.

[2] = test system: MMP1; assay: MMP1 immunostaining on human skin explants after IR-A irradiation; assay type: cell-based
Description: as §1, §2, §3, §4
The immunostaining was performed using an automated slide processing system (Autostainer, Dako) and assessed by microscopical observation.

## O=C(CO)CO [DHA, 1,3-dihydroxy-2-propanone]
[1]; day 7
  protection of the explants after irradiation to IR-A (tropoelastin): excellent protection
[1]; day 7, statistically not different (p>0.1)
  Tropoelastin levels after IR-A irradiation and DHA treatment versus blank untreated explant: comparable to those of blank untreated explant
[2]; epidermis, IR-A irradiated, day 5, p<0.01
  MMP-1 decrease versus irradiated blank, epidermis: 65%
[2]; living epidermis, IR-A irradiated explant + product applied topically, day 5
  MMP1 in the epidermis (% surface): 8.4 % surface
